In patent publication US20240254103A9, “NOVEL PYRIMIDINE DERIVATIVE, AND COMPOSITION FOR PREVENTING OR TREATING NEURODEGENERATIVE DISEASES AND CANCER, COMPRISING SAME” (WHAN IN PHARMACEUTICAL CO., LTD., priority 2020, published 2024):

Target: T1, wild-type LRRK2 (Homo sapiens, UniProt Q5S007)
T1 construct: DNA tag for qPCR detection (not a peptide; the protein part that carries it is not described); made in house; host or cells: HEK 293 cells (the same paragraph also describes T7 phage grown in E. coli BL21)
T1 sequence (Q5S007 970-2527): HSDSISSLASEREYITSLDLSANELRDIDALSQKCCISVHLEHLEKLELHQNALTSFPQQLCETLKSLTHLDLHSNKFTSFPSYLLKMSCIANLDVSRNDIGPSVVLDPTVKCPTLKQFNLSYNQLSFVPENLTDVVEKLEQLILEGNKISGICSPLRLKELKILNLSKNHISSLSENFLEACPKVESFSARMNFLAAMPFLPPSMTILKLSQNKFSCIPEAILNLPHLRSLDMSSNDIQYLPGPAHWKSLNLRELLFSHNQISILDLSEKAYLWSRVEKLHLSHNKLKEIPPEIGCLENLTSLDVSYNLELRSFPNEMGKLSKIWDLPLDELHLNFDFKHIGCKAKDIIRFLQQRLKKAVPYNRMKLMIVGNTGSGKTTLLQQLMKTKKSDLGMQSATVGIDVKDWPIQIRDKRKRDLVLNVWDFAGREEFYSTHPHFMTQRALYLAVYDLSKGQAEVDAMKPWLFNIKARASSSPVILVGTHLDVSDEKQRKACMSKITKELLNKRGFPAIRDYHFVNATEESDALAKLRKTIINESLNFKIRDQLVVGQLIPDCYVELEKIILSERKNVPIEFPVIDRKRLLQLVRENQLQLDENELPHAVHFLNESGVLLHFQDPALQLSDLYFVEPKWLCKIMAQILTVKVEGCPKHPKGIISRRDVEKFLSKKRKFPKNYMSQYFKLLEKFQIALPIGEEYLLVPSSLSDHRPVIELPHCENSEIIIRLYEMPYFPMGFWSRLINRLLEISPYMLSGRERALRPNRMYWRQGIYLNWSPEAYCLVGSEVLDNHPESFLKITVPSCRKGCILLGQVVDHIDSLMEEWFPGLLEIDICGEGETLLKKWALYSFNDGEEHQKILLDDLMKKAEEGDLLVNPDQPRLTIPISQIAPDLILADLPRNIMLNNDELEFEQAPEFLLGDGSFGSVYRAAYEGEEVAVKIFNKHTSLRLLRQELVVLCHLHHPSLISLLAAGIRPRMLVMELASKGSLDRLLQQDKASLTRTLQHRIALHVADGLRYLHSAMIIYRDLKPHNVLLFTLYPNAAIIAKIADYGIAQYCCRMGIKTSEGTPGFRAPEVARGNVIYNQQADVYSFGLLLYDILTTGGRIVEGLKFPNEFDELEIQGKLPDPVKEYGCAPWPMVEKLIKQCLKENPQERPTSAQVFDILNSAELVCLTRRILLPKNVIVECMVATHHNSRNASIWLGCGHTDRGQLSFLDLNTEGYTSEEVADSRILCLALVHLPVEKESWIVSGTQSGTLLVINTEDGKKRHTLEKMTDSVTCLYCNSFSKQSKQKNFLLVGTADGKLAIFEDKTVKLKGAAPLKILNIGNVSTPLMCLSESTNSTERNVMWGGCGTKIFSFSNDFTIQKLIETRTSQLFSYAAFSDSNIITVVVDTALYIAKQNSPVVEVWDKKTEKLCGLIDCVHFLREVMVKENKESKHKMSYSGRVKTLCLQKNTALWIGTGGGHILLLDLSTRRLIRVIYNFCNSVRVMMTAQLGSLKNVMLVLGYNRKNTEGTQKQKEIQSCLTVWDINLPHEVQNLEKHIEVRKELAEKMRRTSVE
Test: Inhibitory activity against LRRK2: competition binding to ligand-affinity beads, DNA-tagged kinase quantitated by qPCR
Settings: % of ctrl; for remaining binding at 0.01 µM: 10 nM compound, read-out: LRRK2(WT) Remaining kinase activity(%) at 10 nM; for remaining binding at 0.05 µM: 50 nM compound, read-out: LRRK2(WT) Remaining kinase activity(%) at 50 nM
Experimental: Representative compounds synthesized in Example 1 were assayed for inhibitory activity against wild-type LRRK2 and mutant LRRK2 (G2019S), and the results are summarized in Tables 2 and 3. In brief, a T7 phase strain carrying the wild-type kinase consisting of amino acid residues from H970 to E2527 of human-derived LRRK2 (Accession no. NP_940980.3) or a T7 phase strain carrying the G2019S mutation kinase was infected into E. coli strain BL21 which was then grown until log phase. After infection with T7 phases (multiplicity of infection=0.4), the cells were cultured at 32° C. for 90-150 minutes while shaking. Then, E. coli lysates were centrifuged (6,000×g) and the supernatant was filtered through a 0.2-μm filter. The kinases were produced in HEK 293 cells. In this regard, DNA was tagged to obtain DNA-tagged kinases for qPCR detection. For use in analyzing the kinases, affinity resins were prepared by treating streptavidin-coated magnetic beads with biotinylated small molecule ligands at room temperature for 30 minutes. Then, the liganded beads were blocked with an excess of biotin and washed with a blocking buffer (SeaBlock (Pierce), 1% BSA, 0.05% Tween 20, 1 mM DTT) to remove unbound ligands and thus to reduce the binding of non-specific phages. […] After one hour of incubation, the affinity beads were washed with a wash buffer (1×PBS, 0.05% Tween 20), resuspended in an elution buffer (1×PBS, 0.05% Tween 20, 0.5 μM non-biotinylated affinity ligand), and incubated at room temperature for 30 minutes while shaking. Afterwards, concentrations of wild-type LRRK2 and mutant LRRK2 (G2019S) in the eluted samples were quantitated by qPCR. Activity values are expressed as percentages relative to the control (% of ctrl). The compounds used in the activity assay were prepared into 40× stocks in 100% DMSO. The stocks were directly diluted during analysis procedures.
Table 2 includes inhibitory activities of the representative compounds of the present disclosure at 100 nM against wild-type LRRK2 and mutant LRRK2 (G2019S) while Table 3 includes inhibitory activities of the representative compounds at 10 nM and 50 nM against wild-type LRRK2. (+++ less than 10%; ++ less than 30%; + less than 50%; −50% or higher)

| Compound | remaining binding at 0.01 µM | remaining binding at 0.05 µM |
| --- | --- | --- |
| COc1cc(C(=O)NC2CCN(C)CC2)ccc1Nc1ncc(Cl)c(-c2cnn(C(C)C)c2)n1 [Compound 60, 4-((5-chloro-4-(1-isopropyl-1H-pyrazol-4-yl)pyrimidin-2-yl)amino)-3-methoxy-N-(1-methylpiperidin-4-yl)benzamide] | < 50% | < 10% |
| COc1cc(C(=O)N2CCN(C)CC2)ccc1Nc1ncc(Cl)c(-c2cnn(C)c2)n1 [Compound 61, (4-((5-chloro-4-(1-methyl-1H-pyrazol-4-yl)pyrimidin-2-yl)amino)-3-methoxyphenyl)(4-methylpiperazin-1-yl)methanone] | < 50% | < 30% |
| COc1cc(C(=O)N2CCN(C(C)C)CC2)ccc1Nc1ncc(Cl)c(-c2cnn(C(C)C)c2)n1 [Compound 64, (4-((5-chloro-4-(1-isopropyl-1H-pyrazol-4-yl)pyrimidin-2-yl)amino)-3-methoxyphenyl)(4-isopropylpiperazin-1-yl)methanone] | < 30% | < 10% |
| COc1cc(C(=O)N2CCC(C(C)(C)O)CC2)ccc1Nc1ncc(Cl)c(-c2cnn(C(C)C)c2)n1 [Compound 70, (4-((5-chloro-4-(1-isopropyl-1H-pyrazol-4-yl)pyrimidin-2-yl)amino)-3-methoxyphenyl)(4-(2-hydroxypropan-2-yl)piperidin-1-yl)methanone] | < 50% | < 30% |
| COc1cc(C(=O)N2CCC(OC)CC2)ccc1Nc1ncc(Cl)c(-c2cnn(C(C)C)c2)n1 [Compound 76, (4-((5-chloro-4-(1-isopropyl-1H-pyrazol-4-yl)pyrimidin-2-yl)amino)-3-methoxyphenyl)(4-methoxypiperidin-1-yl)methanone] | < 50% | < 30% |
| COc1cc(C(=O)N2CCC(S(C)(=O)=O)CC2)ccc1Nc1ncc(Cl)c(-c2cnn(C(C)C)c2)n1 [Compound 79, (4-((5-chloro-4-(1-isopropyl-1H-pyrazol-4-yl)pyrimidin-2-yl)amino)-3-methoxyphenyl)(4-(methylsulfonyl)piperidin-1-yl)methanone] | < 50% | < 10% |
| COc1cc(C(=O)NC2CC2)ccc1Nc1ncc(Cl)c(-c2cnn(C(C)C)c2)n1 [Compound 82, 4-((5-chloro-4-(1-isopropyl-1H-pyrazol-4-yl)pyrimidin-2-yl)amino)-N-cyclopropyl-3-methoxybenzamide] | < 50% | < 30% |
| COc1cc(C(=O)N2CCN(C)CC2)ccc1Nc1ncc(Cl)c(-c2cnn(C(C)(C)C)c2)n1 [Compound 85, (4-((4-(1-(tert-butyl)-1H-pyrazol-4-yl)-5-chloropyrimidin-2-yl)amino)-3-methoxyphenyl)(4-methylpiperazin-1-yl)methanone] | < 50% | < 30% |
| COc1cc(C(=O)N2CCN3CCCC3C2)ccc1Nc1ncc(Cl)c(-c2cnn(C(C)C)c2)n1 (stereo not shown) [Compound 87, (4-((5-chloro-4-(1-isopropyl-1H-pyrazol-4-yl)pyrimidin-2-yl)amino)-3-methoxyphenyl)(hexahydropyrrolo[1,2-a]pyrazin-2(1H)-yl)methanone] | < 50% | < 30% |
| COc1cc(C(=O)N2CCN(C(C)C)CC2)ccc1Nc1ncc(Cl)c(-c2cnn(C(C)(C)C)c2)n1 [Compound 88, (4-((4-(1-(tert-butyl)-1H-pyrazol-4-yl)-5-chloropyrimidin-2-yl)amino)-3-methoxyphenyl)(4-isopropylpiperazin-1-yl)methanone] | < 50% | < 10% |
| COc1cc(C(=O)N2C[C@H]3CC[C@@H](C2)O3)ccc1Nc1ncc(Cl)c(-c2cnn(C(C)C)c2)n1 [Compound 89, ((1R,5S)-8-oxa-3-azabicyclo[3.2.1]octan-3-yl)(4-((5-chloro-4-(1-isopropyl-1H-pyrazol-4-yl)pyrimidin-2-yl)amino)-3-methoxyphenyl)methanone] | ≥ 50% | < 30% |

The next lines start with the values.

| remaining binding at 0.01 µM | remaining binding at 0.05 µM | Compound |
| --- | --- | --- |
| < 30% | < 10% | COc1cc(C(=O)N2CCN(C)CC2)ccc1Nc1ncc(Cl)c(-c2cnn(C(C)C)c2)n1 [Compound 62, (4-((5-chloro-4-(1-isopropyl-1H-pyrazol-4-yl)pyrimidin-2-yl)amino)-3-methoxyphenyl)(4-methylpiperazin-1-yl)methanone] |
| < 50% | < 30% | COc1cc(C(=O)N2CCC3(CC2)COC3)ccc1Nc1ncc(Cl)c(-c2cnn(C(C)C)c2)n1 [Compound 71, (4-((5-chloro-4-(1-isopropyl-1H-pyrazol-4-yl)pyrimidin-2-yl)amino)-3-methoxyphenyl)(2-oxa-7-azaspiro[3.5]nonan-7-yl)methanone] |
| < 50% | < 30% | COc1cc(C(=O)N2CC(N3CCOCC3)C2)ccc1Nc1ncc(Cl)c(-c2cnn(C(C)C)c2)n1 [Compound 73, (4-((5-chloro-4-(1-isopropyl-1H-pyrazol-4-yl)pyrimidin-2-yl)amino)-3-methoxyphenyl)(3-morpholinoazetidin-1-yl)methanone] |
| < 50% | < 10% | COc1cc(C(=S)N2CCOCC2)ccc1Nc1ncc(Cl)c(-c2cnn(C(C)C)c2)n1 [Compound 74, (4-((5-chloro-4-(1-isopropyl-1H-pyrazol-4-yl)pyrimidin-2-yl)amino)-3-methoxyphenyl)(morpholino)methanethione] |
| < 50% | < 30% | COc1cc(C(=O)N2CCC3(CCOCC3)CC2)ccc1Nc1ncc(Cl)c(-c2cnn(C(C)C)c2)n1 [Compound 77, (4-((5-chloro-4-(1-isopropyl-1H-pyrazol-4-yl)pyrimidin-2-yl)amino)-3-methoxyphenyl)(3-oxa-9-azaspiro[5.5]undecan-9-yl)methanone] |
| < 50% | < 10% | COc1cc(C(=O)N2CCN(C(C)=O)CC2)ccc1Nc1ncc(Cl)c(-c2cnn(C(C)C)c2)n1 [Compound 78, 1-(4-(4-((5-chloro-4-(1-isopropyl-1H-pyrazol-4-yl)pyrimidin-2-yl)amino)-3-methoxybenzoyl)piperazin-1-yl)ethan-1-one] |
| < 50% | < 30% | COc1cc(C(=O)NC2CCOCC2)ccc1Nc1ncc(Cl)c(-c2cnn(C(C)C)c2)n1 [Compound 80, 4-((5-chloro-4-(1-isopropyl-1H-pyrazol-4-yl)pyrimidin-2-yl)amino)-3-methoxy-N-(tetrahydro-2H-pyran-4-yl)benzamide] |
| < 50% | < 30% | COc1cc(C(=O)N2CCS(=O)(=O)CC2)ccc1Nc1ncc(Cl)c(-c2cnn(C(C)C)c2)n1 [Compound 84, (4-((5-chloro-4-(1-isopropyl-1H-pyrazol-4-yl)pyrimidin-2-yl)amino)-3-methoxyphenyl)(1,1-dioxidothiomorpholino)methanone] |
| ≥ 50% | < 30% | COc1cc(C(=O)N2CC3(COC3)C2)ccc1Nc1ncc(Cl)c(-c2cnn(C(C)C)c2)n1 [Compound 90, (4-((5-chloro-4-(1-isopropyl-1H-pyrazol-4-yl)pyrimidin-2-yl)amino)-3-methoxyphenyl)(2-oxa-6-azaspiro[3.3]heptan-6-yl)methanone] |
